According to patent US9346832B2, “Gold complexes for use in the treatment of cancer” (University of Kwazulu-Natal, priority 2010, dated 2016):
Where two headings read alike, the source gives them in different places.

What was measured:
[1] = tested on: 60 human cancer cell lines; settings: cited from earlier work; for GI50 / CC50 / IC50: mean over 60 cell lines; for CC50: read-out: LC50, 50% cell death; for IC50: read-out: TGI or IC50, total growth inhibition
[2] = tested on: 60 human cancer cell lines; assay: NCI-60 five-dose screen, mean cytotoxicity over 60 human cancer cell lines; assay type: cell-based
Protocol: The gold(III) complexes of this invention were screened by the National Cancer Institute (NCI, USA) against their panel of 60 different human cancer cell lines. These screens initially entail a one-dose test for the compound at a high concentration (10 μM; e.g. FIGS. 5, 6 and 7). Compounds with a good cytotoxicity profile in the one-dose screen are then subjected to a five-dose screen for the full panel of sixty human cancer cell lines (the so-called 5-dose NCI-60 screen). In the full five-dose screen, the compound concentration is varied in five doses from 10^−8 M to 10^−4 M in order to establish a dose-response function of percentage cell growth versus the concentration of the test agent. […] Similar data will shortly be available for compounds 1.1Y^1b and 1.5Y^1a as these derivatives are in 5-dose screens currently at the NCI.
The mean cytotoxicity data summarized in Scheme 7 were compiled over 60 human cancer cell lines from the NCI database. […] The dose-response curves for the bis(pyrrolide-imine) chelates of the invention are steeper, or harder, than those of all the compounds compared in Scheme 7.

[3] = tested on: HepG2 human hepatocellular carcinoma cells; assay: HepG2 cytotoxicity / cell health parameters; assay type: cell-based; settings: human
Excerpt: (§1) The data for MA_AuPr in Scheme 22 are consistent with a cytotoxic compound capable of inducing apoptosis (programmed cell death) and, indeed, a compound that performs better than the control drug. […] Other cell health parameters which respond are a loss of total cells per well (indicating toxicity due to necrosis, apoptosis or a reduction in cellular proliferation), an increase in nuclear area (indicating necrosis or G2 cell cycle arrest), an increase in cytochrome c release (implying activation of a signalling cascade leading to apoptosis). The latter is particularly relevant as we may rule out cell death by necrosis in the case of MA_AuPr. The mechanism of action of the compound thus leads to cell cycle arrest in the G2 phase and the induction of apoptosis (highly desirable for an anticancer drug). […] Since the compound induces cytochrome c release, cytotoxicity involves apoptosis.

[4] = HepG2 cytotoxicity / cell health parameters; assay type: cell-based, human; settings: human
Excerpt: as §1

calf thymus DNA = assay: Calf-thymus DNA titration (absorption hypochroism); assay type: binding
Protocol: FIG. 20 is a graph of the titration of MA_AuPr (1.1a) with calf-thymus DNA in aqueous pH 7 phosphate buffer at 37° C.
The hypochroism of the absorption band of the complex at 383 nm was monitored as a function of added ctDNA. […] Ka is the equilibrium binding constant in M^−1, Ct is the total Au(III) complex concentration, and s is the binding site size.

human cancer cell lines = assay: Cytotoxicity summary (NCI-60 or independent cytotoxicity screen), Scheme 19; assay type: cell-based
HeLa cells = assay: HeLa cell cytotoxicity dose-response; assay type: cell-based
Protocol: FIG. 9 is a graph of the dose-response curves (HeLa cells, pH 7.0, 37° C.) for three macrocyclic Au(III) chelates. IC50 values for the complexes against HeLa cells obtained from the least squares data fits (graph) are given in the 3rd column of the table.
A summary of the average cytotoxicity data over 60 human cancer cell lines for 1.1a-1.1c and comparison with selected commercial and patented cytotoxic agents is shown in Scheme 7. […] The more abrupt the curve, the harder the dose-response function.

topoisomerase II = topoisomerase II (Homo sapiens, UniProt P11388); assay: Topoisomerase II DNA cleavage/relaxation assay, supercoiled plasmid DNA, EB gel (TopoGEN protocol); assay type: biochemical; settings: for action on topoisomerase II: compared with VP-16 (etoposide); for concentration at which topoisomerase II poisoning (DNA cleavage induction) is observed: supercoiled plasmid DNA, linear cleavage products
Protocol: The compound MA_AuPr clearly targets topoisomerase II if the statistical analysis of the NCI data for a range of drugs shown in FIG. 13 is correct. MA_AuPr was therefore assayed for its action against topoisomerase II in vitro using TopoGEN's standard protocol over a wide range of test agent concentrations (0.005 to 500 μM) in order to obtain direct experimental proof for the apparent cellular target of the compound to ensure that a fundamental understanding of the mechanism of action of this new class of Au(III) compounds exists. These experiments were performed by the company TopoGEN and at the University of Central Florida. The DNA cleavage experiments were performed in vitro using purified topoisomerase I and II enzymes and supercoiled plasmid DNA as the substrate. The controls that were used in the experiment were linear marker DNA as well as reactions without the gold(III) complex and high concentrations of VP16. The compound VP16 (etoposide) is a commercially available DNA intercalator chemotherapeutic agent, widely used in the treatment of lung and testicular cancers as well as lymphomas. The choice of VP16 as a control is based on the fact that it is a poor topoisomerase II inhibitor, but is a powerful topoisomerase II poison which arrests the enzyme's cycle at the ternary drug-enzyme-DNA cleavage complex stage, leading to observation of linear DNA fragments upon SDS denaturation of the enzyme (i.e., work-up). Comparison of the VP16 results with the results of MA_AuPr would therefore give a good indication of whether the gold(III) chelate is an inhibitor or a poison.
Lane 1 of the gel (FIG. 14) is the control experiment with only supercoiled plasmid DNA present. The control contains no topoisomerase II and so the DNA supercoiled structure cannot be relaxed, as the topoisomerase II enzyme would usually do. […] At a higher concentration of the test agent (50 μM), both supercoiled plasmid DNA and linear cleavage products are observed. […] At very high concentrations (>500 μM), MA_AuPr behaves exclusively as a catalytic inhibitor of the enzyme.
The role of gold(III) in the efficacy of the compound was determined by modifying the structure of MA_AuPr by replacing the Au(III) cation with Pd(II) to afford MA_PdPr (the isoelectronic square planar coordination complex of known structure and geometry^31) and carrying out the DNA relaxation assay with topoisomerase II as before. The metal-free ligand (MA_H2PrLig) was tested under identical conditions to confirm that the mechanism of action is related to the intact structure of the metal chelate.

Caco-2 transport = settings: human
Excerpt: The Caco-2 data are especially important as many drugs fail due to poor membrane transport/absorption.

[5] = comparison drugs, NCI database, 50% growth inhibition
[6] = MA series: pH 7.0 phosphate buffer at 37° C.

Chain of topoisomerase II (P11388 whole entry): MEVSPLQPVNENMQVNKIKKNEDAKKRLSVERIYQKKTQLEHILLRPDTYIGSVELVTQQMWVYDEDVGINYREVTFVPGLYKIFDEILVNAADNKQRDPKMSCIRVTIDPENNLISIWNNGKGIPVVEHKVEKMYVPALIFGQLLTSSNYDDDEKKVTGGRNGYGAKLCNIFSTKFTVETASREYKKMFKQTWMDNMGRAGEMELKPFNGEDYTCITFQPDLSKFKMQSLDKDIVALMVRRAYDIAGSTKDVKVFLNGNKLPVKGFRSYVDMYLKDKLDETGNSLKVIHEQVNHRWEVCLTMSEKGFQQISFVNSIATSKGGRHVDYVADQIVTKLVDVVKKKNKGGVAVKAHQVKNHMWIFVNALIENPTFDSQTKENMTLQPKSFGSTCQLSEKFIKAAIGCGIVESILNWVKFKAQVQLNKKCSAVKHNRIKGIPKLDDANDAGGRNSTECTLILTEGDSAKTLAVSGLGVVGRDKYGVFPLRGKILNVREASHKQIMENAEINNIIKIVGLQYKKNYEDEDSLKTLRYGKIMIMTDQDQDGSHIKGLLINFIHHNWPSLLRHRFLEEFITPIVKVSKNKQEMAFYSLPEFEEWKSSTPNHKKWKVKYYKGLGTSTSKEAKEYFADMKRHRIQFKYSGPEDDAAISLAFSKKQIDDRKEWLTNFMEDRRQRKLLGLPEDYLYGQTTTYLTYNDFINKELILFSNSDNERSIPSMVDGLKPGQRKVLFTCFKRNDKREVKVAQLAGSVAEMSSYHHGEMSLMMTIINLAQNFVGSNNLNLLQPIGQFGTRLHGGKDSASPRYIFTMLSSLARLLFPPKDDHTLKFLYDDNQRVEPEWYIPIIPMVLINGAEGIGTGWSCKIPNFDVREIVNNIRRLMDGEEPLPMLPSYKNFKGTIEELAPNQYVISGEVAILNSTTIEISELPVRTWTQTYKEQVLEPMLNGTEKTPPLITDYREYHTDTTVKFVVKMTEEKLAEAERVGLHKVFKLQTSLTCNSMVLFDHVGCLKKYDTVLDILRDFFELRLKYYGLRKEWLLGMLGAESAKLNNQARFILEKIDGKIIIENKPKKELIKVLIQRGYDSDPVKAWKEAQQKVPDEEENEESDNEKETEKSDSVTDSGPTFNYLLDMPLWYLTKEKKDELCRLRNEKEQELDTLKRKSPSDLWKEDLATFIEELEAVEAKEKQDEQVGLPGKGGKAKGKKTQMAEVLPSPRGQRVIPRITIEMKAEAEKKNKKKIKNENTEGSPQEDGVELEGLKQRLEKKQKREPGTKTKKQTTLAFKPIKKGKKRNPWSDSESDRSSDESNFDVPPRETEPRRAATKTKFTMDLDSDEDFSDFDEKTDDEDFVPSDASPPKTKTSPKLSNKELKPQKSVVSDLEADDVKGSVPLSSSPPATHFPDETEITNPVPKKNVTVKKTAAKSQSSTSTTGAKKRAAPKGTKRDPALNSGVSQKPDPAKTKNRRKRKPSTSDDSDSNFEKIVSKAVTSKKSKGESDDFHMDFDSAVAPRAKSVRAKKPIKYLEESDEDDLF

In the case of `Cl.Cl.[Cl][Au-]12[n+]3ccccc3-c3cccc([n+]31)-c1cccc[n+]12` [(Au^III(terpy)Cl]Cl2], the GI50 [1, 5] is given as 0.13 µM, the CC50 ([1]; comparison drugs, NCI database) is given as 73 µM and the IC50 ([1]; comparison drugs, NCI database) is given as 11 µM.

In the case of `CC[C@@]1(O)C(=O)OCc2c1cc1n(c2=O)Cc2cc3ccccc3nc2-1` [Camptothecin], the “increase in concentration from 50% growth inhibition to 50% cell kill” value ([2]; on average over the full 60 cell lines) is listed as 825 fold, the GI50 ([1]; comparison drug) is listed as 0.04 µM and the GI50 [1, 5] is listed as 0.04 µM. For the same compound, the CC50 ([1]; comparison drugs, NCI database) was 33 µM and the IC50 ([1]; comparison drugs, NCI database) was 0.89 µM.

For `CN(C)CCCN1c2ccccc2Sc2ccc(Cl)cc21` [Chlorpromazine, reference compound], the “Cell Loss MEC” value [3] was 100 µM, the “Cytochrome C release MEC” value [3] was 11 µM and the “DNA structure MEC” value [3] was 11 µM. The “Mitochondrial mass MEC” value [3] was 3.7 µM, the “Mitochondrial membrane potential MEC” value [3] was 3.7 µM and the “Nuclear Area MEC” value [3] was over 11 µM. The AC50 ([4]; Cell Loss AC50) was 7.8 µM, the AC50 ([4]; Cytochrome C release AC50) was 16 µM and the AC50 ([4]; DNA structure AC50) was 196 µM. For the same compound, the AC50 ([4]; Membrane permeability AC50) was 30 µM, the AC50 ([4]; Mitochondrial mass AC50) was 5.4 µM and the AC50 ([4]; Mitochondrial membrane potential AC50) was 50 µM. The AC50 ([4]; Nuclear Area AC50) was 100 µM.

For `C1=[N+]2CCCC[N+]3=Cc4ccc5[n]4[Au-]23[n]2c1ccc2-c1nc2ccccc2nc1-5.F[P-](F)(F)(F)(F)F` [KA_AumacroBu, {12,13,14,15-tetrahydro-6,9:18,21-diepimino[1,6]diazacycloctadecino[12,13-b]quinoxalinato}gold(III) hexafluorophosphate(V)], the “Ka (calf thymus DNA)” value (calf thymus DNA; KA series: pH 7.0 15% DMSO-TRIS buffer at 25° C.) was 1.20(9) × 10^6 M^−1, the Cytotoxicity (human cancer cell lines) was “active” and the GI50 (HeLa cells) was about 0.1 µM. For the same compound, the IC50 (HeLa cells; pH 7.0, 37° C.) was 0.37 µM and the CC50 (HeLa cells; read-out: LC50 (the source's name)) was under 10 µM.

For `ClC1C[N+]2=Cc3ccc[n]3[Au-]23[n]2cccc2C=[N+]3C1.F[P-](F)(F)(F)(F)F` [MA_AuCl, 2,2′-{(2-chloropropane-1,3-diyl)bis[nitrilo(E)methylylidene]}bis(pyrrol-1-ido)gold(III) hexafluorophosphate(V)], the “Ka (calf thymus DNA)” value (calf thymus DNA; [6]) was 3.91(7) × 10^5 M^−1 and the Cytotoxicity (human cancer cell lines) was “active”.

In the case of `CC1(C)C[N+]2=Cc3ccc[n]3[Au-]23[n]2cccc2C=[N+]3C1.[Cl-]` [MA_AuDM, 2,2′{(2,2-dimethylpropane-1,3-diyl)bis[nitrilo(E)methyl-ylidene]}bis(pyrrol-1-ido)gold(III) chloride], the “Ka (calf thymus DNA)” value (calf thymus DNA; [6]) is reported as 1.63(3) × 10^5 M^−1, the “fraction of cancer cell lines equivalently or more susceptible than to cisplatin” value ([2]; 60 human cancer cell lines) is reported as “around 12%” and the CC50 ([2]; mean over 60 human cancer cell lines, 50% cell death, read-out: LC50 (the source's name)) is reported as 72 µM. For the same compound, the GI50 ([2]; mean over 60 human cancer cell lines, 50% growth inhibition) was 12 µM, the TGI (concentration for total growth inhibition) ([2]; mean over 60 human cancer cell lines, 100% (total) growth inhibition, read-out: TGI or IC50) was 31 µM and the “growth inhibition activity relative to cisplatin, on average” value ([2]; plot of −log(GI50/M) versus cisplatin, FIG. 10) was 91%. For the same compound, the Cytotoxicity (human cancer cell lines) was “active”.

With `CCOC1C[N+]2=Cc3ccc[n]3[Au-]23[n]2cccc2C=[N+]3C1.F[P-](F)(F)(F)(F)F` [MA_AuOEt, 2,2{(2-ethoxypropane-1,3-diyl)bis[nitrilo(E)methylylidene]}bis(pyrrol-1-ido)gold(III) hexafluorophosphate(V)] the “Ka (calf thymus DNA)” value (calf thymus DNA; [6]) was 1.01(4) × 10^6 M^−1 and the Cytotoxicity (human cancer cell lines) was “active”.

With `C(=NCCCN=Cc1ccc[nH]1)c1ccc[nH]1` [MA_H2PrLig] the “action on topoisomerase II” value (topoisomerase II) was “inactivity” and the “concentration at which topoisomerase II poisoning (DNA cleavage induction) is observed” value (topoisomerase II) was 500 µM.

With `C(=NCCCN=Cc1ccc[n-]1)c1ccc[n-]1.[Pd+2]` [MA_PdPr] the “weaker effect than the gold(III) complex” value (topoisomerase II; DNA-cleavage induction in presence of topoisomerase II) was 100 fold, the “action on topoisomerase II” value (topoisomerase II) was “diminished activity” and the “concentration at which topoisomerase II poisoning (DNA cleavage induction) is observed” value (topoisomerase II) was 50 µM.

For `CO[C@@]12[C@H](COC(N)=O)C3=C(C(=O)C(C)=C(N)C3=O)N1C[C@@H]1N[C@@H]12` [Mitomycin], the GI50 [1, 5] is listed as 0.71 µM and the IC50 ([1]; comparison drugs, NCI database) is listed as 6.5 µM.

Work on `CNC(=C[N+](=O)[O-])NCCSCc1ccc(CN(C)C)o1` [Ranitidine] yielded a Papp A→B at 2 h, 10 µM (Caco-2 transport) of 0.7 ×10⁻⁶ cm/s, a Papp B→A at 2 h, 10 µM (Caco-2 transport) of 2.3 ×10⁻⁶ cm/s and an efflux ratio at 2 h, 10 µM (Caco-2 transport) of 3.3.

For `CC(=O)CC(c1ccccc1)c1c(O)c2ccccc2oc1=O` (stereo not drawn) [Warfarin], the Papp A→B at 2 h, 10 µM (Caco-2 transport; Caco-2) was 37 ×10⁻⁶ cm/s, the Papp B→A at 2 h, 10 µM (Caco-2 transport; Caco-2) was 8 ×10⁻⁶ cm/s and the efflux ratio at 2 h, 10 µM (Caco-2 transport; Caco-2) was 0.2.

For `O=NN(CCCl)C(=O)NCCCl` [carmustine], the “mean −log(GI50)” value ([1]; selected human cancer cell lines, data not shown) is listed as 4.20.
